Results: paper PMC7044277 (Nature Communications, 2020)
Several values for one entry are separate records, joined by “and”; a condition that tells them apart may be missing. Equal values may be shown once.

Legend:
Format in all cases: cell-based
320 non-olfactory GPCRs [1] = target: 320 non-olfactory GPCRs (Homo sapiens, UniProt O95665); conditions: receptor NTSR2; replicate values, Fig_4g
320 non-olfactory GPCRs [2] = target: 320 non-olfactory GPCRs (Homo sapiens, UniProt P47211)
320 non-olfactory GPCRs [3] = target: T1, 320 non-olfactory GPCRs (Homo sapiens, UniProt P23945)
T1 construct: expressed in transfected cells; host or cells: HTLA cells

320 non-olfactory GPCRs [4] = target: T2, 320 non-olfactory GPCRs (Homo sapiens, UniProt P29274)
T2 construct: expressed in transfected cells; host or cells: HTLA cells
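Throughout, for Fold of Basal: compound tested at 1 µM final concentration.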
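Throughout, for GPCRome agonism screen response: fold over basal response of each receptor without drug.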

T1 sequence (P23945 18-695): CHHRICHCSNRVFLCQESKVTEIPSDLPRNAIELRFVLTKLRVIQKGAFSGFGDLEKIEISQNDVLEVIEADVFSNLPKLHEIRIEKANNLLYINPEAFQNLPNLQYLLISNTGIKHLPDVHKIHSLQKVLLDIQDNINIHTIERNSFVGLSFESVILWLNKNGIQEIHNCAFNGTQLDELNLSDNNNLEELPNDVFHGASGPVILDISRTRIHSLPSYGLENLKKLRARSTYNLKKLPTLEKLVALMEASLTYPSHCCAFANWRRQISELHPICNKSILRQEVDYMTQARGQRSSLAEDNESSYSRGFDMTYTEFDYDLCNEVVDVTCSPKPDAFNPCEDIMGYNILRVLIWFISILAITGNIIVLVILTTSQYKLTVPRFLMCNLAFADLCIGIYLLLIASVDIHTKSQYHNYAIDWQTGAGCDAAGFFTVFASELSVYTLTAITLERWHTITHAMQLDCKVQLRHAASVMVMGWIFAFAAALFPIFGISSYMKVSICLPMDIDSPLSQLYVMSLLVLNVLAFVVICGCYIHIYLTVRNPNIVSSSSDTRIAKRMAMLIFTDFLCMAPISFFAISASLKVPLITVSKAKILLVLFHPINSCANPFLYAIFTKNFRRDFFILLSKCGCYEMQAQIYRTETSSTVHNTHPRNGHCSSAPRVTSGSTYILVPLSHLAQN
T2 sequence (P29274 whole entry): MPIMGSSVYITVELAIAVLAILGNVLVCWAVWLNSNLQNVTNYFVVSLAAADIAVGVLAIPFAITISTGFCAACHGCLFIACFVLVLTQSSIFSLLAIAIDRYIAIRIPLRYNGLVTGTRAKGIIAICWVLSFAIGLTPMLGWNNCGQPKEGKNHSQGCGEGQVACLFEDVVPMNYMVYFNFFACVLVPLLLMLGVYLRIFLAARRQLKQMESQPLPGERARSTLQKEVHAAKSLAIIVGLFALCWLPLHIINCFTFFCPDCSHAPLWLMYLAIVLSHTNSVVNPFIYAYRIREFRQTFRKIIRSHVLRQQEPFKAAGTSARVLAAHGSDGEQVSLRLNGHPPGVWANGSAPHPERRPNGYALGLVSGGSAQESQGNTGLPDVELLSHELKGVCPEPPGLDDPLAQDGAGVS
320 non-olfactory GPCRs (Homo sapiens, UniProt O95665), sequence (O95665 whole entry): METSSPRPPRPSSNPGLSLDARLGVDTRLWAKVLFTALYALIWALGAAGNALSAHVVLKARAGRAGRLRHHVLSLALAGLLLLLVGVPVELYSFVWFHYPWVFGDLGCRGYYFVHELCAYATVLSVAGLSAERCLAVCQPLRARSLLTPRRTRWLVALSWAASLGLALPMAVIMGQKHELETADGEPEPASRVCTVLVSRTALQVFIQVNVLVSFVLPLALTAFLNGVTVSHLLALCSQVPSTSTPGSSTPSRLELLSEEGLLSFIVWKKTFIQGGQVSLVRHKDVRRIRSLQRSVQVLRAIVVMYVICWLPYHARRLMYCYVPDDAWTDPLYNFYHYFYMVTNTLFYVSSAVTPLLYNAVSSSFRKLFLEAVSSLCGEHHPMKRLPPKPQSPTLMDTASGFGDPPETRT
320 non-olfactory GPCRs (Homo sapiens, UniProt P47211), sequence (P47211 whole entry): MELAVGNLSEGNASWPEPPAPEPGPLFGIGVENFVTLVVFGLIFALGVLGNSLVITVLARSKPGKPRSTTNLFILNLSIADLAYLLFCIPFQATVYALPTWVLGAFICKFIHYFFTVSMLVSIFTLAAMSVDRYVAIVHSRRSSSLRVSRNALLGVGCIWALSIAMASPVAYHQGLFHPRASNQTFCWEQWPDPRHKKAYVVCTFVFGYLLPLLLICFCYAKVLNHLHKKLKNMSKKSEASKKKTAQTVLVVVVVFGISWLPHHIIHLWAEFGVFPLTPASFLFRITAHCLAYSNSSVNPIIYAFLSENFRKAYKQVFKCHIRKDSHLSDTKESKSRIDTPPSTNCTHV

## CCOc1cccc2cc(C(C)NCC3(O)CCCCC3)oc12 (stereo not shown) [O4LE6]
320 non-olfactory GPCRs [1]
  GPCRome agonism screen response: 0.5368 and 0.5673 and 0.48 and 0.67
320 non-olfactory GPCRs [2]
  Fold of Basal: 0.9505 and 0.7559 and 1.028 and 0.7017
320 non-olfactory GPCRs [3]
  Fold of Basal: 0.5729 and 0.6139 and 0.617 and 0.5943
320 non-olfactory GPCRs [4]
  Fold of Basal: 0.5279 and 0.6435 and 0.5264 and 0.5735
